Source: patent US11077115B2, “Rorgamma modulators and uses thereof” (Genfit, priority 2017, dated 2021)

Tests used:
[1] = molecular target: T1, RORγt ligand-binding domain (RORγt-LBD) (Homo sapiens, UniProt P51449); assay: Time-resolved FRET (TR-FRET) RORγt coactivator assay (RIP140 peptide displacement); format: biochemical; conditions: ligand-dependent coactivator-RORγt binding
T1 construct: 20 nM recombinantly expressed RORγ-LBD fused to GST
T1 sequence (P51449 269-508 limits assumed): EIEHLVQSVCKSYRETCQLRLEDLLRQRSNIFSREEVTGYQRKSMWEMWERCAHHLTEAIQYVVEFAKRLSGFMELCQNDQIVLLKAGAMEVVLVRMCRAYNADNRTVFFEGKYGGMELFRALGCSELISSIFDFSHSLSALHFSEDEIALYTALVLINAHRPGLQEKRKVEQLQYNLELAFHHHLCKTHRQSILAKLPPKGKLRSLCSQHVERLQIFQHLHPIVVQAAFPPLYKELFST
From the text: Time-resolved FRET (TR-FRET) RORγt coactivator assay was used to identify RORγ modulator compounds with ligand-dependent coactivator displacement. The assay uses a d2-labeled anti-GST antibody, synthetic N-terminally biotinylated peptide which is derived from nuclear receptor coactivator protein RIP140, and a RORγt ligand-binding domain (RORγt-LBD) that is tagged with glutathione-S-transferase (GST). The influence of compounds on the RORγ-peptide interaction relies on the binding dependent energy transfer from a donor to an acceptor fluorophor attached to the binding partner of interest. […] For reduction of background from compound fluorescence, TR-FRET method makes use of generic fluorophore labels and time resolved detection.
The assays were done in a final volume of 20 μl in a 384 well plate in a CHAPS buffer (2 mM CHAPS; 1 mM DTT, 2 mM EDTA; 0.1% BSA), containing 20 nM recombinantly expressed RORγ-LBD fused to GST, 30 nM N-terminally biotinylated peptide, 1 nM streptavidin-terbium conjugate and 20 nM d2 labeled-anti-GST. Test compounds were diluted using 10 mM stock solution. The range of the final compound concentrations used in this test was from 0.3 nM to 30 μM (logarithmic scale). DMSO content of the samples was kept at 1%. The assay was equilibrated for 2 hours in the dark at room temperature in 384 well plates (Falcon). The signal was detected by an Ultra384 reader (TECAN). […] Compounds that promote coactivator displacement induce a concentration-dependent decrease in time-resolved fluorescent signal. Data were collected and analyzed using GraphPad Prism software (GraphPad Software V5.02, San Diego Calif. USA). IC50 in μM and E max in % were reported for each compound.

human RORγt [2] = molecular target: T2, human RORγt (Homo sapiens, UniProt P51449); assay: RORE Luciferase/RORγt transactivation assay (IL-17 promoter luciferase reporter in COS-7 cells); format: cell-based; parameters: V5-His (named only through the vector pcDNA3.1D/V5-His-TOPO); expressed in transfected cells; host or cells: COS-7 (monkey kidney); conditions: RORγt activity inhibition, luciferase activity in transfected COS-7 cells, 20 h
T2 sequence (P51449 1-497 isoform P51449-2): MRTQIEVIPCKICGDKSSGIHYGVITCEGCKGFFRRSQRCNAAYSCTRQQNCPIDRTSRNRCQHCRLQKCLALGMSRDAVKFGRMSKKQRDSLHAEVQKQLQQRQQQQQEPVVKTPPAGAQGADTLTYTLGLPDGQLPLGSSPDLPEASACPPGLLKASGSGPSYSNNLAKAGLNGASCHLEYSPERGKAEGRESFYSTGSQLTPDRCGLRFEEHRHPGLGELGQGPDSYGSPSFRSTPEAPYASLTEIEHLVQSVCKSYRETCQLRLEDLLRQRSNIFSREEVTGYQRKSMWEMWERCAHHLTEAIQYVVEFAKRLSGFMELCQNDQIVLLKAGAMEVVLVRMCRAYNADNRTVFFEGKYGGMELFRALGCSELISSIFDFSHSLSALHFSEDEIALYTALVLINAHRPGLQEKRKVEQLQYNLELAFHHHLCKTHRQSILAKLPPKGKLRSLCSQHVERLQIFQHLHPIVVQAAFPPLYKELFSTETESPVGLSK
Experimental: It is well known that RORγ binds to a conserved non-coding sequence (CNS) enhancer element in the IL-17 promoter.
Culture medium was changed every 2 days.
The 4.3 Kb human IL-17 promoter containing the RORγ-specific CNS enhancer element was PCR amplified from human genomic DNA and cloned into a pGL3-TKLuc2Cp reporter plasmid.
The luciferase reporter plasmid and the RORγt overexpression plasmid were transfected into COS-7 cell line using 4 μL JetPEI™/μg of DNA. Briefly, 150 ng of DNA (ration 1/2 between RORE-Tk Luc2Cp and cDNA RORγt or the empty vector for the negative control) was served to transfect adherent COS-7 cells in a […] culture flask, in complete medium (see cos-7 cell line culture).
Cells were then detached (using trypsin) and washed by centrifugation at 300 g for 10 minutes. Cell pellet was resuspended in serum free/phenol red free DMEM and seeded in 384 well plates at a density of 10000 cells/well and then incubated for 4 h at 37° C.
Compounds were dissolved in 100% DMSO to obtain 10 mM stock solutions. For each compound, test concentrations were diluted in serum free/phenol red free DMEM using the Genesis Freedom 200™ (TECAN) and added to the cells to obtain a 0.3% DMSO final concentration (in a final volume of 40 μL per well).
The luciferase activity was then measured with 40 μL/well steady-Glo Luciferase assay system (Promega, Madison, Wis.) and after incubation at room temperature for 30 minutes. The luminescence was estimated using the Ultra384 reader (TECAN). Data were collected and analyzed using GraphPad Prism software (GraphPad Software V5.02, San Diego Calif. USA). IC50 in μM and E max in % were reported for each compound.

human RORγt [3] = molecular target: T2, human RORγt; assay: IL-17 secretion from EL4 murine lymphoma overexpressing human RORγt; format: cell-based; parameters: V5-His (named only through the vector pcDNA3.1D/V5-His-TOPO); expressed in transfected cells; conditions: IL-17 secretion inhibition in human RORγt-transfected EL4 Tcells, PMA/ionomycin stimulation
Experimental: Murine EL-4 lymphoma cell line overexpressing human RORγt was used in this functional assay to assess compound ability to inhibit IL-17 cytokine secretion.
EL-4 cells are maintained in a standard culture medium RPMI supplemented with 10% fetal calf serum, 1% sodium pyruvate, 1% essential amino acids and 1% antibiotics at 37° C. in a humidified atmosphere of 5% CO2 and 95% air. Culture medium was changed every 2 days. EL4 cells were transfected with a plasmid encoding hRORγt (sequence identical to published sequence NM 001001523). […] Briefly, 1 μg of DNA/1 million cells was served to transfect EL-4 cells. Cell/DNA suspension was transferred into certified cuvette and the electroporation of RORγt plasmid was carried out using appropriate Nucleofector® program.
Cells were seeded in 96 well plates at a density of 150000 cells/well then treated with compounds of this invention at indicated concentrations and incubated for 24 hours at 37° C. in a humidified atmosphere of 5% CO2 and 95% air. EL-4 cells were pretreated with test compounds (RORγ modulators) and stimulated with PMA (10 ng/mL) and ionomycin (1 μM final concentration) in the presence of test compound concentrations for additional 24 h at 37° C. in a humidified atmosphere of 5% CO2 and 95% air. Subsequently, supernatants were collected (after centrifugation at 300 g for 10 minutes) to determine the concentrations of IL-17 by HTRF (CisBio, France) or ELISA (R&D Systems Europe) according to the manufacturer's protocols.

Row | Structure (SMILES) | IC50 [1] [nM] | IC50 (human RORγt [2]) [nM] | IC50 (human RORγt [3]) [nM]
1 | O=C(Cc1ccc(N2CCS(=O)(=O)CC2)cc1)NC(c1ccccc1)c1ccccc1N1CCCCC1 (centres unmarked) [Cpd. 1, 2-[4-(1,1-dioxo-1-thiomorpholin-4-yl)phenyl]-N-{phenyl[2-(piperidin-1-yl)phenyl]methyl}acetamide] | < 1000 | 100 to 1000 | 100 to 1000
2 | COc1ccc(C(NC(=O)C2(c3ccc(N4CCS(=O)(=O)CC4)cc3)CC2)c2ccc(C)o2)c(C)c1 (centres unmarked) [Cpd. 44, 1-[4-(1,1-dioxo-1-thiomorpholin-4-yl)phenyl]-N-[(4-methoxy-2-methylphenyl)(5-methylfuran-2-yl)methyl]cyclopropane-1-carboxamide] | < 1000 | < 100 | –
3 | COc1ccc(C(NC(=O)Cc2cnc(N3CCS(=O)(=O)CC3)nc2)c2ccc(C)o2)c(N2CCCCCC2)c1 (centres unmarked) [Cpd. 45, N-{[2-(azepan-1-yl)-4-methoxyphenyl](5-methylfuran-2-yl)methyl}-2-[2-(1,1-dioxo-1-thiomorpholin-4-yl)pyrimidin-5-yl]acetamide] | < 1000 | 100 to 1000 | –
4 | Cc1ccc(C(NC(=O)Cc2ccc(N3CCS(=O)(=O)CC3)cn2)c2ccc(C)o2)c(N2CCCCC2)c1 (centres unmarked) [Cpd. 47, 2-[5-(1,1-dioxo-1-thiomorpholin-4-yl)pyridin-2-yl]-N-{[4-methyl-2-(piperidin-1-yl)phenyl](5-methylfuran-2-yl)methyl}acetamide] | < 1000 | < 100 | –
5 | Cc1ccc(C(NC(=O)C2(c3ccc(N4CCS(=O)(=O)CC4)cc3)CCC2)c2ccc(C)o2)c(N2CCCCC2)c1 (centres unmarked) [Cpd. 55, 1-[4-(1,1-dioxo-1-thiomorpholin-4-yl)phenyl]-N-{[4-methyl-2-(piperidin-1-yl)phenyl](5-methylfuran-2-yl)methyl}cyclobutane-1-carboxamide] | 100 to 1000 | 100 to 1000 | –
6 | Cc1ccc(C(NC(=O)C(C)(C)c2ccc(N3CCS(=O)(=O)CC3)cc2)c2ccc(C)o2)c(N2CCCCC2)c1 (centres unmarked) [Cpd. 56, 2-[4-(1,1-dioxo-1-thiomorpholin-4-yl)phenyl]-2-methyl-N-{[4-methyl-2-(piperidin-1-yl)phenyl](5-methylfuran-2-yl)methyl}propanamide] | 100 to 1000 | 100 to 1000 | –
7 | COc1ccc(C(NC(=O)C2(c3cnc(N4CCS(=O)(=O)CC4)nc3)CC2)c2ccc(C)o2)c(C)c1 (centres unmarked) [Cpd. 57, 1-[2-(1,1-dioxo-1-thiomorpholin-4-yl)pyrimidin-5-yl]-N-[(4-methoxy-2-methylphenyl)(5-methylfuran-2-yl)methyl]cyclopropane-1-carboxamide] | – | 100 to 1000 | 1000 to 10000
8 | Cc1ccc(C(NC(=O)C2(c3cccc(N4CCS(=O)(=O)CC4)c3)CC2)c2ccc(C)o2)c(N2CCCCC2)c1 (centres unmarked) [Cpd. 58, 1-[3-(1,1-dioxo-1-thiomorpholin-4-yl)phenyl]-N-{[4-methyl-2-(piperidin-1-yl)phenyl](5-methylfuran-2-yl)methyl}cyclopropane-1-carboxamide] | < 1000 | 100 to 1000 | –
9 | Cc1ccc(C(NC(=O)C2(c3ccc(N4CCS(=O)(=O)CC4)cc3)CC2)c2ccc(C)o2)c(C)c1 (centres unmarked) [Cpd. 64, N-[(2,4-dimethylphenyl)(5-methylfuran-2-yl)methyl]-1-[4-(1,1-dioxo-1-thiomorpholin-4-yl)phenyl]cyclopropane-1-carboxamide] | 1000 to 10000 | 100 to 1000 | –
10 | Cc1ccc(C(NC(=O)Cc2ncc(N3CCS(=O)(=O)CC3)cn2)c2ccc(C)o2)c(N2CCCCC2)c1 (centres unmarked) [Cpd. 65, 2-[5-(1,1-dioxo-1-thiomorpholin-4-yl)pyrimidin-2-yl]-N-{[4-methyl-2-(piperidin-1-yl)phenyl](5-methylfuran-2-yl)methyl}acetamide] | < 1000 | < 100 | –
11 | Cc1ccc(C(NC(=O)C2(c3ccc(N4CCS(=O)(=O)CC4)cc3)CC2)c2ccc(Cl)o2)cc1 (centres unmarked) [Cpd. 67, N-[(5-chlorofuran-2-yl)(4-methylphenyl)methyl]-1-[4-(1,1-dioxo-1-thiomorpholin-4-yl)phenyl]cyclopropane-1-carboxamide] | < 1000 | < 100 | –
12 | Cc1ccc(C(NC(=O)C2(c3cccc(N4CCS(=O)(=O)CC4)c3)CC2)c2ccc(C)o2)c(C)c1 (centres unmarked) [Cpd. 68, N-[(2,4-dimethylphenyl)(5-methylfuran-2-yl)methyl]-1-[3-(1,1-dioxo-1-thiomorpholin-4-yl)phenyl]cyclopropane-1-carboxamide] | < 1000 | 100 to 1000 | –
13 | Cc1ccc(C(NC(=O)C2(c3cc(N4CCS(=O)(=O)CC4)ccc3C)CC2)c2ccc(C)o2)c(C)c1 (centres unmarked) [Cpd. 70, N-[(2,4-dimethylphenyl)(5-methylfuran-2-yl)methyl]-1-[5-(1,1-dioxo-1-thiomorpholin-4-yl)-2-methylphenyl]cyclopropane-1-carboxamide] | 100 to 1000 | – | 1000 to 10000
14 | Cc1ccc(C(NC(=O)C2(c3ncc(N4CCS(=O)(=O)CC4)cc3C)CC2)c2ccc(C)o2)c(C)c1 (centres unmarked) [Cpd. 72, N-[(2,4-dimethylphenyl)(5-methylfuran-2-yl)methyl]-1-[5-(1,1-dioxo-1-thiomorpholin-4-yl)-3-methylpyridin-2-yl]cyclopropane-1-carboxamide] | – | < 100 | < 1000
